Active and inactive are the calls of the source. How the calls were made is not given here.
Tested on: CCRIS mutagenicity, Ames/micronucleus/aberration tests
Assay: CCRIS mutagenicity studies
[1] = Test System: AMES SALMONELLA TYPHIMURIUM, Strain/Indicator: TA98, Metabolic Activation: NONE, Method: PREINCUBATION
[2] = Test System: AMES SALMONELLA TYPHIMURIUM, Strain/Indicator: TA98, Metabolic Activation: RAT LIVER S-9, PHENOBARBITAL AND BETA-NAPHTHOFLAVONE, Method: PREINCUBATION
[3] = Test System: AMES SALMONELLA TYPHIMURIUM, Strain/Indicator: TA100, Metabolic Activation: NONE, Method: PREINCUBATION
[4] = Test System: AMES SALMONELLA TYPHIMURIUM, Strain/Indicator: TA100, Metabolic Activation: RAT LIVER S-9, PHENOBARBITAL AND BETA-NAPHTHOFLAVONE, Method: PREINCUBATION
[5] = Test System: AMES SALMONELLA TYPHIMURIUM, Strain/Indicator: TA1535, Metabolic Activation: NONE, Method: PREINCUBATION
[6] = Test System: AMES SALMONELLA TYPHIMURIUM, Strain/Indicator: TA1535, Metabolic Activation: RAT LIVER S-9, PHENOBARBITAL AND BETA-NAPHTHOFLAVONE, Method: PREINCUBATION
[7] = Test System: AMES SALMONELLA TYPHIMURIUM, Strain/Indicator: TA1537, Metabolic Activation: NONE, Method: PREINCUBATION
[8] = Test System: AMES SALMONELLA TYPHIMURIUM, Strain/Indicator: TA1537, Metabolic Activation: RAT LIVER S-9, PHENOBARBITAL AND BETA-NAPHTHOFLAVONE, Method: PREINCUBATION
[9] = Test System: AMES SALMONELLA TYPHIMURIUM, Strain/Indicator: TA98, Metabolic Activation: NONE, Method: STANDARD PLATE
[10] = Test System: Ames Salmonella typhimurium, Strain/Indicator: TA98, Metabolic Activation: None, Method: Preincubation
[11] = Test System: Ames Salmonella typhimurium, Strain/Indicator: TA100, Metabolic Activation: None, Method: Preincubation
[12] = Test System: AMES SALMONELLA TYPHIMURIUM, Strain/Indicator: TA100, Metabolic Activation: NONE, Method: STANDARD PLATE

CCN1CCNC(=O)C1=O was tested, and the mutagenic call [1] was “inactive; negative”, the mutagenic call [2] was “inactive; negative” and the mutagenic call [3] was “inactive; negative”. The mutagenic call [4] was “inactive; negative”, the mutagenic call [5] was “inactive; negative” and the mutagenic call [6] was “inactive; negative”. The mutagenic call [7] was “inactive; negative”, the mutagenic call [8] was “inactive; negative” and the mutagenic call (Test System: AMES SALMONELLA TYPHIMURIUM, Strain/Indicator: TA1538, Metabolic Activation: NONE, Method: PREINCUBATION) was “inactive; negative”. The mutagenic call (Test System: AMES SALMONELLA TYPHIMURIUM, Strain/Indicator: TA1538, Metabolic Activation: RAT LIVER S-9, PHENOBARBITAL AND BETA-NAPHTHOFLAVONE, Method: PREINCUBATION) was “inactive; negative”, the mutagenic call (Test System: E.COLI, Strain/Indicator: WP2UVRA, Metabolic Activation: NONE, Method: PREINCUBATION) was “inactive; negative” and the mutagenic call (Test System: E.COLI, Strain/Indicator: WP2UVRA, Metabolic Activation: RAT LIVER S-9, PHENOBARBITAL AND BETA-NAPHTHOFLAVONE, Method: PREINCUBATION) was “inactive; negative”.
For COc1c2ccoc2nc2c(O)cccc12, the mutagenic call [9] was “inactive; negative” and the mutagenic call (Test System: AMES SALMONELLA TYPHIMURIUM, Strain/Indicator: TA98, Metabolic Activation: RAT LIVER S-9, PHENOBARTITAL, Method: STANDARD PLATE) was “active; positive”.
For C[Si](C)(C)N=[N+]=[N-], the mutagenic call [3] was “active; positive” and the mutagenic call (Test System: AMES SALMONELLA TYPHIMURIUM, Strain/Indicator: TA100, Metabolic Activation: RAT, LIVER, S-9, PCB, Method: PREINCUBATION) was “active; positive”.
In the case of CC(=O)CC(=O)Nc1ccccc1C, the mutagenic call (Test System: AMES SALMONELLA TYPHIMURIUM, Strain/Indicator: TA102, Metabolic Activation: NONE, Method: STANDARD PLATE) is reported as “inactive; negative”, the mutagenic call (Test System: AMES SALMONELLA TYPHIMURIUM, Strain/Indicator: TA2638, Metabolic Activation: NONE, Method: STANDARD PLATE) is reported as “inactive; negative” and the mutagenic call [10] is reported as “inactive; negative”. For the same compound, the mutagenic call (Test System: Ames Salmonella typhimurium, Strain/Indicator: TA98, Metabolic Activation: Rat, Liver, S9, Sodium phenobarbital and 5,6-benzoflavone (10%), Method: Preincubation) was “inactive; negative”, the mutagenic call [11] was “inactive; negative” and the mutagenic call (Test System: Ames Salmonella typhimurium, Strain/Indicator: TA100, Metabolic Activation: Rat, Liver, S9, Sodium phenobarbital and 5,6-benzoflavone (10%), Method: Preincubation) was “inactive; negative”. The mutagenic call (Test System: Ames Salmonella typhimurium, Strain/Indicator: TA1535, Metabolic Activation: None, Method: Preincubation) was “inactive; negative”, the mutagenic call (Test System: Ames Salmonella typhimurium, Strain/Indicator: TA1535, Metabolic Activation: Rat, Liver, S9, Sodium phenobarbital and 5,6-benzoflavone (10%), Method: Preincubation) was “inactive; negative” and the mutagenic call (Test System: Ames Salmonella typhimurium, Strain/Indicator: TA1537, Metabolic Activation: None, Method: Preincubation) was “inactive; negative”. The mutagenic call (Test System: Ames Salmonella typhimurium, Strain/Indicator: TA1537, Metabolic Activation: Rat, Liver, S9, Sodium phenobarbital and 5,6-benzoflavone (10%), Method: Preincubation) was “inactive; negative”, the mutagenic call (Test System: E. COLI, Strain/Indicator: WP2 (PKM101), Metabolic Activation: NONE, Method: STANDARD PLATE) was “inactive; negative” and the mutagenic call (Test System: E. COLI, Strain/Indicator: WP2 UVRA (PKM101), Metabolic Activation: NONE, Method: STANDARD PLATE) was “inactive; negative”. For the same compound, the mutagenic call (Test System: E. coli, Strain/Indicator: WP2uvrA/pKM101, Metabolic Activation: None, Method: Preincubation) was “inactive; negative” and the mutagenic call (Test System: E. coli, Strain/Indicator: WP2uvrA/pKM101, Metabolic Activation: Rat, Liver, S9, Sodium phenobarbital and 5,6-benzoflavone (10%), Method: Preincubation) was “inactive; negative”.
NC=O was tested, and the mutagenic call (End Point: In vivo micronucleus, Test System: Peripheral blood erythrocytes, Species: Mouse, Strain/Sex: B6C3F1/ Male and Female, Route: Oral) was “inactive; negative”, the mutagenic call (Test System: AMES SALMONELLA TYPHIMURIUM, Strain/Indicator: TA98, Metabolic Activation: HAMSTER, LIVER, S-9, AROCLOR 1254 (10%), Method: PREINCUBATION) was “inactive; negative” and the mutagenic call [1] was “inactive; negative”. For the same compound, the mutagenic call [2] was “inactive; negative”, the mutagenic call (Test System: AMES SALMONELLA TYPHIMURIUM, Strain/Indicator: TA98, Metabolic Activation: RAT, LIVER, S-9, AROCLOR 1254 (10%), Method: PREINCUBATION) was “inactive; negative” and the mutagenic call (Test System: AMES SALMONELLA TYPHIMURIUM, Strain/Indicator: TA100, Metabolic Activation: HAMSTER, LIVER, S-9, AROCLOR 1254 (10%), Method: PREINCUBATION) was “inactive; negative”. For the same compound, the mutagenic call [3] was “inactive; negative”, the mutagenic call [4] was “inactive; negative” and the mutagenic call (Test System: AMES SALMONELLA TYPHIMURIUM, Strain/Indicator: TA100, Metabolic Activation: RAT, LIVER, S-9, AROCLOR 1254 (10%), Method: PREINCUBATION) was “inactive; negative”. The mutagenic call (Test System: AMES SALMONELLA TYPHIMURIUM, Strain/Indicator: TA1535, Metabolic Activation: HAMSTER, LIVER, S-9, AROCLOR 1254 (10%), Method: PREINCUBATION) was “inactive; negative”, the mutagenic call [5] was “inactive; negative” and the mutagenic call [6] was “inactive; negative”. For the same compound, the mutagenic call (Test System: AMES SALMONELLA TYPHIMURIUM, Strain/Indicator: TA1535, Metabolic Activation: RAT, LIVER, S-9, AROCLOR 1254 (10%), Method: PREINCUBATION) was “inactive; negative”, the mutagenic call (Test System: AMES SALMONELLA TYPHIMURIUM, Strain/Indicator: TA1537, Metabolic Activation: HAMSTER, LIVER, S-9, AROCLOR 1254 (10%), Method: PREINCUBATION) was “inactive; negative” and the mutagenic call [7] was “inactive; negative”. For the same compound, the mutagenic call [8] was “inactive; negative”, the mutagenic call (Test System: AMES SALMONELLA TYPHIMURIUM, Strain/Indicator: TA1537, Metabolic Activation: RAT, LIVER, S-9, AROCLOR 1254 (10%), Method: PREINCUBATION) was “inactive; negative” and the mutagenic call [10] was “inactive; negative”. For the same compound, the mutagenic call (Test System: Ames Salmonella typhimurium, Strain/Indicator: TA98, Metabolic Activation: Rat, Liver, S-9, Aroclor 1254 (10%), Method: Preincubation) was “inactive; negative”, the mutagenic call [11] was “inactive; negative” and the mutagenic call (Test System: Ames Salmonella typhimurium, Strain/Indicator: TA100, Metabolic Activation: Rat, Liver, S-9, Aroclor 1254 (10%), Method: Preincubation) was “inactive; negative”. For the same compound, the mutagenic call (Test System: E. coli, Strain/Indicator: WP urvA pKM101, Metabolic Activation: None, Method: Preincubation) was “inactive; negative”, the mutagenic call (Test System: E. coli, Strain/Indicator: WP urvA pKM101, Metabolic Activation: Rat, Liver, S-9, Aroclor 1254 (10%), Method: Preincubation) was “inactive; negative” and the mutagenic call (Test System: E.COLI, Strain/Indicator: WP2UVRA/PKM101, Metabolic Activation: NONE, Method: PREINCUBATION) was “inactive; negative”. For the same compound, the mutagenic call (Test System: E.COLI, Strain/Indicator: WP2UVRA/PKM101, Metabolic Activation: RAT LIVER S-9, PHENOBARBITAL AND BETA-NAPHTHOFLAVONE, Method: PREINCUBATION) was “inactive; negative”.
For Cc1cc(Cc2cc(C)cc(C(C)(C)C)c2O)c(O)c(C(C)(C)C)c1, the mutagenic call [9] was “inactive; negative”, the mutagenic call (Test System: AMES SALMONELLA TYPHIMURIUM, Strain/Indicator: TA98, Metabolic Activation: S-9, Method: STANDARD PLATE) was “inactive; negative” and the mutagenic call [12] was “inactive; negative”. The mutagenic call (Test System: AMES SALMONELLA TYPHIMURIUM, Strain/Indicator: TA100, Metabolic Activation: S-9, Method: STANDARD PLATE) was “inactive; negative”.
In the case of CC(=O)c1oc([N+](=O)[O-])c(Cl)c1Cl, the mutagenic call [9] is reported as “active; positive”, the mutagenic call (Test System: AMES SALMONELLA TYPHIMURIUM, Strain/Indicator: TA100 (NR), Metabolic Activation: NONE, Method: STANDARD PLATE) is reported as “active; positive” and the mutagenic call [12] is reported as “active; positive”. For the same compound, the mutagenic call (Test System: AMES SALMONELLA TYPHIMURIUM, Strain/Indicator: TA100, Metabolic Activation: NONE, Method: STANDARD PLATE (ANAEROBIC INCUBATION)) was “active; positive”.
For CN(C)c1ccc(N=O)cc1, the mutagenic call (Test System: AMES SALMONELLA TYPHIMURIUM, Strain/Indicator: TA100, Metabolic Activation: NONE, Method: FLUCTUATION TEST) was “active; positive”.
In the case of CN(CCCC(O)c1cccnc1)N=O (stereo unspecified), the mutagenic call (Test System: AMES SALMONELLA TYPHIMURIUM, Strain/Indicator: TA1535, Metabolic Activation: HAMSTER LIVER S-9, AROCLOR 1254 (5% OR 10%), Method: MICROSUPENSION) is reported as “active; positive” and the mutagenic call (Test System: AMES SALMONELLA TYPHIMURIUM, Strain/Indicator: TA1535, Metabolic Activation: RAT LIVER S-9, AROCLOR 1254 (5% OR 10%), Method: MICROSUSPENSION) is reported as “active; positive”.

Reference: PubChem BioAssay AID1259407 (Chemical Carcinogenesis Research Information System (CCRIS), 2018)
